For one data set, the target named is T1, Aurora-B (Homo sapiens, UniProt Q96GD4).
T1 construct: in some cases as full-length kinases, in some cases as truncated fragments; purchased Upstate/Millipore #14-835
As to the kind of experiment: Cell-free kinase assay (ALPHA technology), Aurora-B. The format is biochemical. The following applies: at 10 μM ATP; read-out: IC50 Aurora-B. As for the experimental part: The kinase reaction was stopped by adding 10 μl of the ALPHA bead mix (10 μg/ml, #6760617/PerkinElmer), pre-incubated with anti-phospho PLK antibody (100 pM, #5070, Cell Signaling), in 25 mM Tris, 200 mM NaCl, 100 mM EDTA and 0.3% BSA, and left to stand overnight. The luminiscence was detected the next morning in a Envision instrument (Perkin Elmer). […] 0% controls contained no ATP whereas the 100% controls contained no test substance. The IC50 values were determined with GraphPadPrism.

The next data set addresses T2, Erk2 (Homo sapiens, UniProt P28482).
T2 construct: in some cases as full-length kinases, in some cases as truncated fragments
As to the kind of experiment: Cell-free kinase assay (ALPHA technology), Erk2. Type of data set: biochemical. The following applies: for dual activity against Aurora-B and Erk2 (or cRaf-Mek-Erk cascade respectively): in words; for IC50: at 10 μM ATP. As for the experimental part: (§1) The controls were determined 16 fold. 0% controls contained no ATP whereas the 100% controls contained no test substance. The IC50 values were determined with GraphPadPrism.

A further data set addresses cRaf-Mek1-Erk2 (Homo sapiens, UniProt P04049+P28482+Q02750). The conditions noted are these: read-out: IC50 cRaf-Mek-Erk; at 10 μM ATP. Here is the method: The inhibitory effect of the inventive compounds was tested on various human serine/threonine kinases and tyrosine kinases in enzymatic assays. Recombinant human kinases, for example Aurora-B, cRaf-Mek1-Erk2, Erk2, Pim-1, HIPK1, KDR, TrkA, Yes, c-Abl and others were used, in some cases as full-length kinases, in some cases as truncated fragments—but at least consisting of the functional kinase domains. The commercial kinase proteins (Proqinase, Millipore) were used as recombinant fusion proteins with GST (glutathione S-transferase) tag or His tag. Depending on the substrate type, the different kinase reactions were quantified by suitable ALPHA™ beads (PerkinElmer).
The calculation of % inhibition values per substance concentration was done by means of the following formula from the raw data determined in the Envision reader:
as §1

Some results are limits rather than exact numbers.

T1 sequence (Q96GD4 whole entry, the tested form may be a part): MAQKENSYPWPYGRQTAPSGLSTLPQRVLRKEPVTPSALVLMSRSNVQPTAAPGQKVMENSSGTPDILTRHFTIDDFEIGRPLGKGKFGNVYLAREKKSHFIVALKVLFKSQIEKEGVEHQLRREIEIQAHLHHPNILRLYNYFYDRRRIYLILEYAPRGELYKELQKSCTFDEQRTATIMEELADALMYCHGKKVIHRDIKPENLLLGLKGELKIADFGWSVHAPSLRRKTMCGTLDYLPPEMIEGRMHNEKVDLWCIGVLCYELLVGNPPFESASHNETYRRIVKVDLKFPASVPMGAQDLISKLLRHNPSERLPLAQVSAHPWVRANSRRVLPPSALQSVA
T2 sequence (P28482 whole entry, the tested form may be a part): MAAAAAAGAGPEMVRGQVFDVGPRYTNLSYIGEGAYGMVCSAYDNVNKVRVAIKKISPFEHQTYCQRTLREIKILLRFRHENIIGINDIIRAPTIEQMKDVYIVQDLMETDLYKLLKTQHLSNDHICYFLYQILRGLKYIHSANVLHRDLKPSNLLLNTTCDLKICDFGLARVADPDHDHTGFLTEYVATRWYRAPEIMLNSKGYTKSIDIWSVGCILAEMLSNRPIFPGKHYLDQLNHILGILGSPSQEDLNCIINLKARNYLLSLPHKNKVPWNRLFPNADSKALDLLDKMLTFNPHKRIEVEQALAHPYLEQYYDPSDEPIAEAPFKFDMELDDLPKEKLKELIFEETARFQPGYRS
Sequence of cRaf-Mek1-Erk2 (P04049 whole entry, the tested form may be a part): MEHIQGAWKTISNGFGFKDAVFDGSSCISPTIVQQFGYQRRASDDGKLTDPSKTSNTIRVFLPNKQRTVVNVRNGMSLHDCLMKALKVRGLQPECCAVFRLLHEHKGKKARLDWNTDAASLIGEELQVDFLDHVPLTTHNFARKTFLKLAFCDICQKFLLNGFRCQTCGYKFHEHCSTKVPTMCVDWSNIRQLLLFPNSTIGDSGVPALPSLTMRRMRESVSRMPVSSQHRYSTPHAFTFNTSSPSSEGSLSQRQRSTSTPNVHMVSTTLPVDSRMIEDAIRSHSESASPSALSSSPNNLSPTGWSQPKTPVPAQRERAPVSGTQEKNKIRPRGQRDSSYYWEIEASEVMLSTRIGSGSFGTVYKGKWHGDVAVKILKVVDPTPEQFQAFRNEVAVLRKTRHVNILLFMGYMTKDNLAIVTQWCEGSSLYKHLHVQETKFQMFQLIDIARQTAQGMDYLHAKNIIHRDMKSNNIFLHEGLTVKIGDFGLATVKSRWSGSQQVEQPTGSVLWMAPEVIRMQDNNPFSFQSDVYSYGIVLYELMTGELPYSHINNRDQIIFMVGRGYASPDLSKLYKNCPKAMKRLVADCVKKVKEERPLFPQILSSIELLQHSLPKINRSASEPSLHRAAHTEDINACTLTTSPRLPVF
Sequence of cRaf-Mek1-Erk2 (Q02750 whole entry, the tested form may be a part): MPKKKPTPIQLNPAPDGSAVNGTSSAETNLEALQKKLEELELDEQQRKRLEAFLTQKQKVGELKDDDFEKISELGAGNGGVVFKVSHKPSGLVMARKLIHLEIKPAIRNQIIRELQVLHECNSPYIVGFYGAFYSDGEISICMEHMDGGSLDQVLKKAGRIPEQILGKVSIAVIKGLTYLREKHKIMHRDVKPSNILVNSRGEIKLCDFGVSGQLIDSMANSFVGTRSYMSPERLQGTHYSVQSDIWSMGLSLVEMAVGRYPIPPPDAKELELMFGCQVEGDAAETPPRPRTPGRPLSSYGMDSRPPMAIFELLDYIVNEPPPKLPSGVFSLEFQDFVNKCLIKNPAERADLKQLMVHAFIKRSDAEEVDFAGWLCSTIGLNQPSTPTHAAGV
Sequence of cRaf-Mek1-Erk2 (P28482 2-360): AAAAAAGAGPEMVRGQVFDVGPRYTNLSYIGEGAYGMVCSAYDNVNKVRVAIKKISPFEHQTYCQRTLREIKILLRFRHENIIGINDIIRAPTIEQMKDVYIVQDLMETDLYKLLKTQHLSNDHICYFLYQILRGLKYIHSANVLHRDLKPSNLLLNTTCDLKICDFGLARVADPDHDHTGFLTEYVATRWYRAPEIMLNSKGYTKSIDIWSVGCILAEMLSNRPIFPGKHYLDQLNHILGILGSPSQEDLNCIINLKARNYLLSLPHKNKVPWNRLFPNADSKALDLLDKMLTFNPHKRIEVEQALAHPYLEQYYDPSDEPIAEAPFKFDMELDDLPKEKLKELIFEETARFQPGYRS

The term IC50 denotes the concentration that inhibits the measured activity by half. The term melting point denotes the temperature, or range, at which the solid turns liquid. For `CCNC(=O)Nc1ccc2ncc(-c3ccc(OC)cc3)cc2n1` [Compound 1, 1-Ethyl-3-[7-(4-methoxy-phenyl)-[1,5]naphthyridin-2-yl]urea], the melting point fell in the range of 264 to 265 °C. In addition, at Aurora-B, the IC50 came out at 2230 nM. The “dual activity against Aurora-B and Erk2 (or cRaf-Mek-Erk cascade respectively)” value (“dual activity against Aurora-B and Erk2” for short) on Erk2 is on record as “dual activity”.

In the case of `CCNC(=O)Nc1ccc2ncc(-c3ccc(OC)c(OC)c3)cc2n1` [Compound 2, 1-[7-(3,4-Dimethoxy-phenyl)-[1,5]naphthyridin-2-yl]-3-ethyl-urea], the melting point fell in the range of 218 to 219 °C. Moreover, the half-inhibitory concentration (IC50) on Aurora-B amounted to 624 nM. At Erk2, the “dual activity against Aurora-B and Erk2” value is given as “dual activity”.

In turn, `COc1ccc(-c2cnc3ccc(NC(=O)NC(C)(C)C)nc3c2)cc1OC` [Compound 3, 1-tert-Butyl-3-[7-(3,4-dimethoxy-phenyl)-[1,5]naphthyridin-2-yl]-urea] came in with a melting point of 279 to 280 °C. For the same compound, the IC50 on Aurora-B came to 805 nM. Moreover, on Erk2, it took 1720 nM to reach half-maximal inhibition (IC50); the “dual activity against Aurora-B and Erk2” value is “dual activity”. The IC50 on cRaf-Mek1-Erk2 was 1120 nM.

`COc1cc(-c2cnc3ccc(NC(=O)NC(C)(C)C)nc3c2)ccc1O` [Compound 4, 1-tert-Butyl-3-[7-(4-hydroxy-3-methoxy-phenyl)-[1,5]naphthyridin-2-yl]-urea] had a melting point of 286 to 287 °C. The half-maximal inhibitory concentration (IC50) on Aurora-B was 227 nM. At Erk2, the “dual activity against Aurora-B and Erk2” value is given as “dual activity”.

`Cn1cc(-c2cnc3ccc(NC(=O)NCCc4ccccc4)nc3c2)cn1` [Compound 5, 1-[7-(1-Methyl-1H-pyrazol-4-yl)-[1,5]naphthyridin-2-yl]-3-phenethyl-urea] came in with a melting point of 237 to 238 °C. Besides, the concentration for half-maximal inhibition (IC50) on Aurora-B amounted to 171 nM. Further, at Erk2, it took 733 nM to reach half-maximal inhibition (IC50); the “dual activity against Aurora-B and Erk2” value was “dual activity”. Further, the IC50 on cRaf-Mek1-Erk2 was determined as 8 nM.

As to `CCNC(=S)Nc1ccc2ncc(Nc3cc(OC)c(OC)c(OC)c3)cc2n1` [Compound 6, 1-Ethyl-3-[7-(3,4,5-trimethoxy-phenylamino)-[1,5]naphthyridin-2-yl]-thiourea], the melting point lay within 237 to 238 °C.

With `CCNC(=O)Nc1ccnc2cc(-c3ccc(OC)c(OC)c3)cnc12` [Compound 7, 1-[7-(3,4-Dimethoxy-phenyl)-[1,5]naphthyridin-4-yl]-3-ethyl-urea], the melting point lay within 215 to 216 °C. The IC50 on Aurora-B was found to be 136 nM. Moreover, the IC50 against Erk2 was > 100000 nM. The IC50 on cRaf-Mek1-Erk2 is ~100000 nM.

As for `Cn1cc(-c2cnc3ccc(NC(=O)NC(C)(C)C)nc3c2)cn1` [Compound 26, 1-tert-Butyl-3-[7-(1-methyl-1H-pyrazol-4-yl)-[1,5]naphthyridin-2-yl]-urea], the values for the IC50 on Aurora-B, against Erk2 and at cRaf-Mek1-Erk2 were 260 nM, 429 nM and 96 nM, respectively. The “dual activity against Aurora-B and Erk2” value on Erk2 is “dual activity”.

Consider `Cn1cc(-c2cnc3ccc(NC(=O)Nc4ccccc4)nc3c2)cn1` [Compound 27, 1-[7-(1-Methyl-1H-pyrazol-4-yl)-[1,5]naphthyridin-2-yl]-3-phenyl-urea], for which the half-maximal inhibitory concentration (IC50) at Aurora-B worked out at 1140 nM; against Erk2, 191 nM; at cRaf-Mek1-Erk2, 157 nM. For the same compound, the “dual activity against Aurora-B and Erk2” value at Erk2 is recorded as “dual activity”.

For the compound `Cn1cc(-c2cnc3ccc(NC(=O)NCc4ccccc4)nc3c2)cn1` [Compound 28, 1-Benzyl-3-[7-(1-methyl-1H-pyrazol-4-yl)-[1,5]naphthyridin-2-yl]-urea], the melting point lay in the range of 257 to 258 °C. Also, the IC50 at Aurora-B was 579 nM. Also, the “dual activity against Aurora-B and Erk2” value at Erk2 was “dual activity”.

On to `CC(C)NC(=O)Nc1ccnc2cc(-c3cnn(C)c3)cnc12` [Compound 30, 1-Isopropyl-3-[7-(1-methyl-1H-pyrazol-4-yl)-[1,5]naphthyridin-4-yl]-urea], for which the figures for the IC50 on Aurora-B, against Erk2 and at cRaf-Mek1-Erk2 were 137 nM, > 100000 nM and 2170 nM, respectively.
